# Test results: US9738634B2, “Heterocyclic amide compound and herbicide” (SYNGENTA PARTICIPATIONS AG, priority 2013, dated 2017)
# Assays:
# Format in all cases: in vivo
# chickweed = experiment: Test Example 3: weedkilling efficacy through soil treatment; N: chickweed; details: soil treatment, treatment dosage 320 g/ha
# Outline: (§1)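 Crop and weed responses were judged three weeks after a uniform surface spray of the water-diluted emulsion at the given g/ha rate. Seeds sat beneath about 1.5 cm of sterilized diluvial soil, and boxes stood in a greenhouse at 25 to 30° C.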
# wheat = experiment: Test Example 3: soil treatment, effect on crop; e: wheat; details: soil treatment, treatment dosage 320 g/ha
# Outline: as §1
# crabgrass = experiment: Test Example 3: weedkilling efficacy through soil treatment; D: crabgrass; details: soil treatment, treatment dosage 320 g/ha
# Outline: as §1
# beet = experiment: Test Example 3: soil treatment, effect on crop; f: beet; details: soil treatment, treatment dosage 320 g/ha
# Outline: as §1
# catchweed = experiment: Test Example 3: weedkilling efficacy through soil treatment; O: catchweed; details: soil treatment, treatment dosage 320 g/ha
# Outline: as §1
# oval-leafed pondweed [1] = experiment: Test Example 2: weedkilling efficacy, growth period weed treatment in the submerged state; C: oval-leafed pondweed; details: treatment dosage 320 g/ha
# Outline: (§2)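 Barnyard grass, bulrush and oval-leafed pondweed sown in alluvial soil under 4 cm flooding, greenhouse 25 to 30° C. At 1-2 leaf stage, water-diluted emulsion applied to the water surface at stated g/ha dosages; effects scored 3 weeks later.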
# corn = experiment: Test Example 3: soil treatment, effect on crop; c: corn; details: soil treatment, treatment dosage 320 g/ha
# Outline: as §1
# bulrush [2] = experiment: Test Example 1: weedkilling efficacy, preemergent weed treatment in the submerged state; B: bulrush; details: treatment dosage 320 g/ha
# Outline: (§3)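 Pots of alluvial soil flooded 4 cm deep, sown with barnyard grass, bulrush and oval-leafed pondweed and transplanted with 2.5-leaf rice. Emulsified compound applied to the water surface on sowing day at stated g/ha; greenhouse 25–30 °C, effects assessed 3 weeks after treatment.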
# fig-leafed goosefoot = experiment: Test Example 3: weedkilling efficacy through soil treatment; M: fig-leafed goosefoot; details: soil treatment, treatment dosage 320 g/ha
# Outline: as §1
# barnyard grass [3] = experiment: Test Example 1: weedkilling efficacy, preemergent weed treatment in the submerged state; A: barnyard grass; details: treatment dosage 320 g/ha
# Outline: as §3
# directly sown rice = experiment: Test Example 3: soil treatment, effect on crop; b: directly sown rice; details: soil treatment, treatment dosage 320 g/ha
# Outline: as §1
# common wind-grass = experiment: Test Example 3: weedkilling efficacy through soil treatment; J: common wind-grass; details: soil treatment, treatment dosage 320 g/ha
# Outline: as §1
# transplanted rice = experiment: Test Example 1: preemergent weed treatment in the submerged state, effect on crop; a: transplanted rice; details: treatment dosage 320 g/ha
# Outline: as §3
# wild oat = experiment: Test Example 3: weedkilling efficacy through soil treatment; G: wild oat; details: soil treatment, treatment dosage 320 g/ha
# Outline: as §1
# Indian mallow = experiment: Test Example 3: weedkilling efficacy through soil treatment; K: Indian mallow; details: soil treatment, treatment dosage 320 g/ha
# Outline: as §1
# Italian ryegrass = experiment: Test Example 3: weedkilling efficacy through soil treatment; I: Italian ryegrass; details: soil treatment, treatment dosage 320 g/ha
# Outline: as §1
# bulrush [4] = experiment: Test Example 2: weedkilling efficacy, growth period weed treatment in the submerged state; B: bulrush; details: treatment dosage 320 g/ha
# Outline: as §2
# oval-leafed pondweed [5] = experiment: Test Example 1: weedkilling efficacy, preemergent weed treatment in the submerged state; C: oval-leafed pondweed; details: treatment dosage 320 g/ha
# Outline: as §3
# birds-eye speedwell = experiment: Test Example 3: weedkilling efficacy through soil treatment; p: birds-eye speedwell; details: soil treatment, treatment dosage 320 g/ha
# Outline: as §1
# green foxtail = experiment: Test Example 3: weedkilling efficacy through soil treatment; E: green foxtail; details: soil treatment, treatment dosage 320 g/ha
# Outline: as §1
# barnyard grass [6] = experiment: Test Example 2: weedkilling efficacy, growth period weed treatment in the submerged state; A: barnyard grass; details: treatment dosage 320 g/ha
# Outline: as §2
# rapeseed = experiment: Test Example 3: soil treatment, effect on crop; g: rapeseed; details: soil treatment, treatment dosage 320 g/ha
# Outline: as §1
# redroot pigweed = experiment: Test Example 3: weedkilling efficacy through soil treatment; L: redroot pigweed; details: soil treatment, treatment dosage 320 g/ha
# Outline: as §1
# barnyard grass [7] = experiment: Test Example 3: weedkilling efficacy through soil treatment; F: barnyard grass; details: soil treatment, treatment dosage 320 g/ha
# Outline: as §1
# black-grass = experiment: Test Example 3: weedkilling efficacy through soil treatment; H: black-grass; details: soil treatment, treatment dosage 320 g/ha
# Outline: as §1
# soybean = experiment: Test Example 3: soil treatment, effect on crop; d: soybean; details: soil treatment, treatment dosage 320 g/ha
# Outline: as §1
compound,measurement,setting,value
CC(C)(C(=O)Nc1cc(C(F)F)ccn1)N1COCN(c2ccccc2)C1=O [A-2-40],"N: chickweed, weedkilling efficacy grade",chickweed,"4 (weed kill ratio 70% or more, less than 90%)"
same,"e: wheat, effect on crop grade",wheat,"1 (weed kill ratio 5% or more, less than 20%)"
same,"D: crabgrass, weedkilling efficacy grade",crabgrass,"5 (weed kill ratio 90% or more, (practically complete withering))"
same,"f: beet, effect on crop grade",beet,"4 (weed kill ratio 70% or more, less than 90%)"
same,"O: catchweed, weedkilling efficacy grade",catchweed,"5 (weed kill ratio 90% or more, (practically complete withering))"
same,C (oval-leafed pondweed) weedkilling efficacy grade,oval-leafed pondweed [1],"5 (weed kill ratio 90% or more, (practically complete withering))"
same,"c: corn, effect on crop grade",corn,"2 (weed kill ratio 20% or more, less than 40%)"
same,"B: bulrush, weed kill grade",bulrush [2],"5 (weed kill ratio 90% or more, (practically complete withering))"
same,"M: fig-leafed goosefoot, weedkilling efficacy grade",fig-leafed goosefoot,"4 (weed kill ratio 70% or more, less than 90%)"
same,"A: barnyard grass, weed kill grade",barnyard grass [3],"5 (weed kill ratio 90% or more, (practically complete withering))"
same,"b: directly sown rice, effect on crop grade",directly sown rice,"5 (weed kill ratio 90% or more, (practically complete withering))"
same,"J: common wind-grass, weedkilling efficacy grade",common wind-grass,"5 (weed kill ratio 90% or more, (practically complete withering))"
same,"a: transplanted rice, effect on crop grade",transplanted rice,"1 (weed kill ratio 5% or more, less than 20%)"
same,"G: wild oat, weedkilling efficacy grade",wild oat,"5 (weed kill ratio 90% or more, (practically complete withering))"
same,"K: Indian mallow, weedkilling efficacy grade",Indian mallow,"4 (weed kill ratio 70% or more, less than 90%)"
same,"I: Italian ryegrass, weedkilling efficacy grade",Italian ryegrass,"5 (weed kill ratio 90% or more, (practically complete withering))"
same,B (bulrush) weedkilling efficacy grade,bulrush [4],"5 (weed kill ratio 90% or more, (practically complete withering))"
same,"C: oval-leafed pondweed, weed kill grade",oval-leafed pondweed [5],"5 (weed kill ratio 90% or more, (practically complete withering))"
same,"P: birds-eye speedwell, weedkilling efficacy grade",birds-eye speedwell,"5 (weed kill ratio 90% or more, (practically complete withering))"
same,"E: green foxtail, weedkilling efficacy grade",green foxtail,"5 (weed kill ratio 90% or more, (practically complete withering))"
same,A (barnyard grass) weedkilling efficacy grade,barnyard grass [6],"5 (weed kill ratio 90% or more, (practically complete withering))"
same,"g: rapeseed, effect on crop grade",rapeseed,"4 (weed kill ratio 70% or more, less than 90%)"
same,"L: redroot pigweed, weedkilling efficacy grade",redroot pigweed,"4 (weed kill ratio 70% or more, less than 90%)"
same,"F: barnyard grass, weedkilling efficacy grade",barnyard grass [7],"5 (weed kill ratio 90% or more, (practically complete withering))"
same,"H: black-grass, weedkilling efficacy grade",black-grass,"5 (weed kill ratio 90% or more, (practically complete withering))"
same,"d: soybean, effect on crop grade",soybean,"3 (weed kill ratio 40% or more, less than 70%)"
